From patent US11999786B2, “Anti-CD48 antibodies, antibody drug conjugates, and uses thereof” (Novartis AG, priority 2020, dated 2024)
Non-standard residues stand in square brackets, D forms with d. Residues, ends and D or L forms follow the SMILES beside them. *: point of attachment. Dolaproine = CO[C@@H]([C@@H]1CCCN1)[C@@H](C)C(=O)O; Dil = CC[C@H](C)[C@H](NC)[C@@H](CC(=O)O)OC; X1 = C[C@@H](N*)[C@@H](O)c1ccccc1; NMeV = CN[C@H](C(=O)O)C(C)C

Experiments:
Format in all cases: cell-based
KMS-27 = assay: Internalization and cell proliferation assay (CellTiter-Glo, with secondary anti-human Fc-VC-MMAE ADC); settings: KMS-27, CellTiter-Glo
Description: (§1) The internalization activity of CD48 antibodies were tested against three endogenous cancer cell lines: KMS-27: JCRB No. JCRB1188 cultured in RPMI-1640+10% FBS; NCI-H929: ATCC No. CRL-9068 cultured in RPMI-1640+10% FBS+0.05 mM 2-mercaptoethanol; and KMS-21-BM: JCRB No. JCRB1185 cultured in RPMI-1640+10% FBS.
(§2) CD48 antibodies were synthesized and expressed generally as described in Example 5. Cell lines were cultured in media that is optimal for their growth at 5% CO2, 37° C. in a tissue culture incubator. Prior to seeding for the proliferation assay, the cells were split at least 2 days before the assay to ensure optimal growth density. On the day of seeding, cell viability and cell density were determined using a cell counter (Vi-Cell XR Cell Viability Analyzer, Beckman Coulter). Cells with higher than 85% viability were seeded in white clear bottom 384-well TC treated plates (Corning cat. #3765). Cells were seeded at a density of 1,000 cells per well in 40 μL of standard growth media. Plates were incubated at 5% CO2, 37° C. overnight in a tissue culture incubator. The next day free MMAE payload, a CD48A-CysMab-VC-MMAE ADC (synthesis described in Example 5), CD48 antibodies, and a non-targeting isotype antibody were prepared at 10× in standard growth media. The MMAE free payload and CD48A-CysMab-VC-MMAE ADC were added to the cells resulting in final concentrations of 0.007-150 nM and a final volume of 50 μL per well. The prepared antibody treatments, including CD48 IgGs and a non-targeting isotype antibody, were then added to the cells resulting in final concentrations of 0.001-20 nM and a final volume of 45 μL per well. An anti-human Fc-VC-MMAE ADC (DAR2.0) was prepared at 10× in standard growth media. The prepared ADC was then added to the cells resulting in a final concentration of 60 nM and a final volume of 50 μL per well. Each drug concentration was tested in quadruplets. Plates were incubated at 5% CO2, 37° C. for 5 days in a tissue culture incubator, after which cell viability was assessed through the addition of 25 μL of CellTiter Glo® (Promega, cat #G7573), a reagent which lyses cells and measures total adenosine triphosphate (ATP) content. Plates were incubated at room temperature for 10 minutes to stabilize luminescent signals prior to reading using a luminescence reader (EnVision Multilabel Plate Reader, PerkinElmer). To evaluate the effect of the drug treatments, luminescent counts from wells containing untreated cells (100% viability) were used to normalize treated samples. A variable slope model was applied to fit a nonlinear regression curve to the data in GraphPad PRISM version 7.02 software. IC50 and Amax values were extrapolated from the resultant curves.
(§3) The dose response curves of representative cancer cell lines are shown in FIG. 2A (KMS-27), FIG. 2B (NCI-H929), and FIG. 2C (KMS-21-BM).

NCI-H929 = assay: as above
Description: as §1, §2, §3

KMS-21-BM = assay: as above
Description: as §1, §2, §3

[1] = system: KMS-27, NCI-H929 and KMS-21-BM cancer cell lines; assay: Internalization and cell proliferation assay, statements across the three cancer cell lines; settings: range across the three cell lines; dosed directly, 5 days, CellTiter-Glo
Description: as §1
CD48 antibodies were synthesized and expressed generally as described in Example 5. Cell lines were cultured in media that is optimal for their growth at 5% CO2, 37° C. in a tissue culture incubator. Prior to seeding for the proliferation assay, the cells were split at least 2 days before the assay to ensure optimal growth density. On the day of seeding, cell viability and cell density were determined using a cell counter (Vi-Cell XR Cell Viability Analyzer, Beckman Coulter). Cells with higher than 85% viability were seeded in white clear bottom 384-well TC treated plates (Corning cat. #3765). […] Plates were incubated at 5% CO2, 37° C. for 5 days in a tissue culture incubator, after which cell viability was assessed through the addition of 25 μL of CellTiter Glo® (Promega, cat #G7573), a reagent which lyses cells and measures total adenosine triphosphate (ATP) content. Plates were incubated at room temperature for 10 minutes to stabilize luminescent signals prior to reading using a luminescence reader (EnVision Multilabel Plate Reader, PerkinElmer). […]

## CC[C@H](C)[C@@H]([C@@H](CC(=O)N1CCC[C@H]1[C@H](OC)[C@@H](C)C(=O)N[C@H](C)[C@@H](O)c1ccccc1)OC)N(C)C(=O)[C@@H](NC(=O)[C@@H](NC)C(C)C)C(C)C [MMAE] (H-[NMeV]V[Dil][Dolaproine]-X1)
KMS-27
  IC50: 0.021 nM
  Span (Amax): 83.9
NCI-H929
  IC50: 0.116 nM
  Span (Amax): 88.5
KMS-21-BM
  IC50: 0.024 nM
  Span (Amax): 72.9
[1]
  IC50: 0.021 to 0.116 nM
